# Reference: patent publication US12473304B2, “Heterocyclic PAD4 inhibitors” (BRISTOL-MYERS SQUIBB COMPANY, priority 2020, dated 2025)
# Biological target: human PAD4 (hPAD4) (Homo sapiens (Human), UniProt Q9UM07)
# Assay: RFMS Human PAD4 Functional Assay 1
# Format: biochemical
# Conditions: RFMS assay 1; 5 nM hPAD4, 250 μM BAEE substrate, 50 μM calcium, 37° C.
# Procedure, shortened: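 Citrullination product read by RapidFire triple-quad MRM against a modified-citrulline internal standard, after TCA stop and 30 min phenyl glyoxal step at 37 °C. Reaction: 250 μM BAEE, 5 nM human PAD4, 90 min at 37 °C, pH 7.5 HEPES buffer with 50 μM calcium and 5 μM TPEN, following 30 min compound–enzyme preincubation (max 50 μM).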
# human PAD4 (hPAD4), sequence (Q9UM07 whole entry): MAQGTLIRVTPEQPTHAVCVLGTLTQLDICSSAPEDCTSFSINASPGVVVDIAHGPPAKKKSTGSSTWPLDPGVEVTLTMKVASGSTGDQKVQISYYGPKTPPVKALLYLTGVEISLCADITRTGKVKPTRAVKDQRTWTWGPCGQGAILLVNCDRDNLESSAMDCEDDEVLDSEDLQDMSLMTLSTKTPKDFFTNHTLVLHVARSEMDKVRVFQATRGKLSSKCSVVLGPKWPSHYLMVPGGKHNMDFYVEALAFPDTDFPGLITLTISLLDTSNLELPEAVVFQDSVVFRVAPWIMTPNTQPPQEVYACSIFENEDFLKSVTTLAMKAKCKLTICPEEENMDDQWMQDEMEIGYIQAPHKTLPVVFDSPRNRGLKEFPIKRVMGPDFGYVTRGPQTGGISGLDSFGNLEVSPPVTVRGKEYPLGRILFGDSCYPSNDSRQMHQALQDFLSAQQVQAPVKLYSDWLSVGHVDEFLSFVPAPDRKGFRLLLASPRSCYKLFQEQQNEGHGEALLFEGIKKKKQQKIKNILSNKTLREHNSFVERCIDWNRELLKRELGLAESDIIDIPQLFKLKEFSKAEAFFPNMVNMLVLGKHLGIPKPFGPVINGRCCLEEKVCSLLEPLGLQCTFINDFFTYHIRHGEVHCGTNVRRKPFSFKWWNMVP
row,Compound,IC50
1,"COc1cc(C(=O)N2C[C@H](N)C[C@@H](F)C2)cn2nc(-c3cc4cccc(OC[C@@H]5CCC(=O)N5)c4n3CC3CC3)c(C)c12 [Example 560, (S)-5-(((2-(6-((3R,5R)-3-Amino-5-fluoropiperidine-1-carbonyl)-4-methoxy-3-methylpyrazolo[1,5-a]pyridin-2-yl)-1-(cyclopropylmethyl)-1H-indol-7-yl)oxy)methyl)pyrrolidin-2-one]",160 nM
2,"COc1cc(C(=O)N2CCC[C@@H](N)C2)cn2nc(-c3cc4cccc(OC[C@H]5CCC(=O)N5)c4n3CC3CC3)c(C)c12 [Example 561, (R)-5-(((2-(6-((R)-3-Aminopiperidine-1-carbonyl)-4-methoxy-3-methylpyrazolo[1,5-a]pyridin-2-yl)-1-(cyclopropylmethyl)-1H-indol-7-yl)oxy)methyl)pyrrolidin-2-one]",640 nM
3,"Cc1c(-c2cc3cccc(OC[C@@H]4CCC(=O)N4)c3n2CC2CC2)nn2cc(C(=O)N3C[C@H](N)C[C@@H](F)C3)cc(F)c12 [Example 568, (S)-5-(((2-(6-((3R,5R)-3-Amino-5-fluoropiperidine-1-carbonyl)-4-fluoro-3-methylpyrazolo[1,5-a]pyridin-2-yl)-1-(cyclopropylmethyl)-1H-indol-7-yl)oxy)methyl)pyrrolidin-2-one]",60 nM
4,"Cc1c(-c2cc3cccc(OC[C@@H]4CCC(=O)N4)c3n2CC2CC2)nn2cc(C(=O)N3CCC[C@@H](N)C3)cc(F)c12 [Example 569, (S)-5-(((2-(6-((R)-3-Aminopiperidine-1-carbonyl)-4-fluoro-3-methylpyrazolo[1,5-a]pyridin-2-yl)-1-(cyclopropylmethyl)-1H-indol-7-yl)oxy)methyl)pyrrolidin-2-one]",20 nM
5,"Cc1c(-c2cc3cccc(OC[C@H]4CCC(=O)N4)c3n2CC2CC2)nn2cc(C(=O)N3CCC[C@@H](N)C3)cc(F)c12 [Example 570, (R)-5-(((2-(6-((R)-3-Aminopiperidine-1-carbonyl)-4-fluoro-3-methylpyrazolo[1,5-a]pyridin-2-yl)-1-(cyclopropylmethyl)-1H-indol-7-yl)oxy)methyl)pyrrolidin-2-one]",180 nM
6,"Cc1c(-c2cc3cccc(OCCn4ccnc4)c3n2CC2CC2)nn2cc(C(=O)N3C[C@H](N)C[C@@H](F)C3)ccc12 [Example 574, (2-(7-(2-(1H-Imidazol-1-yl)ethoxy)-1-(cyclopropylmethyl)-1H-indol-2-yl)-3-methylpyrazolo[1,5-a]pyridin-6-yl)((3R,5R)-3-amino-5-fluoropiperidin-1-yl)methanone]",20 nM
7,"Cc1c(-c2cc3cccc(OCCn4ccnc4)c3n2CC2CC2)nn2cc(C(=O)N3CCC[C@@H](N)C3)ccc12 [Example 575, (R)-(2-(7-(2-(1H-lmidazol-1-yl)ethoxy)-1-(cyclopropylmethyl)-1H-indol-2-yl)-3-methylpyrazolo[1,5-a]pyridin-6-yl)(3-aminopiperidin-1-yl)methanone]",60 nM
8,"Cc1c(-c2cc3cccc(OCCn4cncn4)c3n2CC2CC2)nn2cc(C(=O)N3CCC[C@@H](N)C3)ccc12 [Example 580, (R)-(2-(7-(2-(1H-1,2,4-Triazol-1-yl)ethoxy)-1-(cyclopropylmethyl)-1H-indol-2-yl)-3-methylpyrazolo[1,5-a]pyridin-6-yl)(3-aminopiperidin-1-yl)methanone]",60 nM
9,"Cc1c(-c2cc3cccc(OCCn4cncn4)c3n2CC2CC2)nn2cc(C(=O)N3C[C@H](N)C[C@@H](F)C3)ccc12 [Example 581, (2-(7-(2-(1H-1,2,4-Triazol-1-yl)ethoxy)-1-(cyclopropylmethyl)-1H-indol-2-yl)-3-methylpyrazolo[1,5-a]pyridin-6-yl)((3R, 5R)-3-amino-5-fluoropiperidin-1-yl)methanone]",30 nM
10,"Cc1c(-c2cc3cccc(OCCn4cc(N)cn4)c3n2CC2CC2)nn2cc(C(=O)N3CCC[C@@H](N)C3)ccc12 [Example 582, (R)-(2-(7-(2-(4-Amino-1H-pyrazol-1-yl)ethoxy)-1-(cyclopropylmethyl)-1H-indol-2-yl)-3-methylpyrazolo[1,5-a]pyridin-6-yl)(3-aminopiperidin-1-yl)methanone]",300 nM
11,"Cc1c(-c2cc3cccc(OCCn4cc(N)cn4)c3n2CC2CC2)nn2cc(C(=O)N3C[C@H](N)C[C@@H](F)C3)ccc12 [Example 583, (2-(7-(2-(4-Amino-1H-pyrazol-1-yl)ethoxy)-1-(cyclopropylmethyl)-1H-indol-2-yl)-3-methylpyrazolo[1,5-a]pyridin-6-yl)((3R,5R)-3-amino-5-fluoropiperidin-1-yl)methanone]",1610 nM
12,"Cc1c(-c2cc3cccc(OC[C@@H]4CCC(=O)N4)c3n2CC2CC2)nn2cc(C(=O)N3CCC[C@@H](N)C3)ccc12 [Example 584, (S)-5-(((2-(6-((R)-3-Aminopiperidine-1-carbonyl)-3-methylpyrazolo[1,5-a]pyridin-2-yl)-1-(cyclopropylmethyl)-1H-indol-7-yl)oxy)methyl)pyrrolidin-2-one]",50 nM
13,"Cc1c(-c2cc3cccc(OC[C@@H]4CCC(=O)N4)c3n2CC2CC2)nn2cc(C(=O)N3C[C@H](N)C[C@@H](F)C3)ccc12 [Example 585, (S)-5-(((2-(6-((3R,5R)-3-Amino-5-fluoropiperidine-1-carbonyl)-3-methylpyrazolo[1,5-a]pyridin-2-yl)-1-(cyclopropylmethyl)-1H-indol-7-yl)oxy)methyl)pyrrolidin-2-one]",70 nM
14,"Cc1c(-c2cc3cccc(OC[C@H]4CCC(=O)N4)c3n2CC2CC2)nn2cc(C(=O)N3CCC[C@@H](N)C3)ccc12 [Example 586, (R)-5-(((2-(6-((R)-3-Aminopiperidine-1-carbonyl)-3-methylpyrazolo[1,5-a]pyridin-2-yl)-1-(cyclopropylmethyl)-1H-indol-7-yl)oxy)methyl)pyrrolidin-2-one]",150 nM
15,"Cc1c(-c2cc3cccc(OC[C@H]4CCC(=O)N4)c3n2CC2CC2)nn2cc(C(=O)N3C[C@H](N)C[C@@H](F)C3)ccc12 [Example 587, (R)-5-(((2-(6-((3R,5R)-3-Amino-5-fluoropiperidine-1-carbonyl)-3-methylpyrazolo[1,5-a]pyridin-2-yl)-1-(cyclopropylmethyl)-1H-indol-7-yl)oxy)methyl)pyrrolidin-2-one]",1120 nM
16,"COc1cc(C(=O)N2C[C@H](N)C[C@@H](F)C2)cn2nc(-c3cc4ccnc(OCCn5cncn5)c4n3CC3CC3)c(C)c12 [Example 592, (2-(7-(2-(1H-1,2,4-Triazol-1-yl)ethoxy)-1-(cyclopropylmethyl)-1H-pyrrolo[2,3-c]pyridin-2-yl)-4-methoxy-3-methylpyrazolo[1,5-a]pyridin-6-yl)((3R,5R)-3-amino-5-fluoropiperidin-1-yl)methanone]",30 nM
17,"COc1cc(C(=O)N2CCC[C@@H](N)C2)cn2nc(-c3cc4ccnc(OCCn5cncn5)c4n3CC3CC3)c(C)c12 [Example 593, (R)-(2-(7-(2-(1H-1,2,4-Triazol-1-yl)ethoxy)-1-(cyclopropylmethyl)-1H-pyrrolo[2,3-c]pyridin-2-yl)-4-methoxy-3-methylpyrazolo[1,5-a]pyridin-6-yl)(3-aminopiperidin-1-yl)methanone]",110 nM
18,"COc1cc(C(=O)N2C[C@H](N)C[C@@H](F)C2)cn2nc(-c3cc4ccnc(OCCn5ccnc5C)c4n3CC3CC3)c(C)c12 [Example 594, ((3R,5R)-3-Amino-5-fluoropiperidin-1-yl)(2-(1-(cyclopropylmethyl)-7-(2-(2-methyl-1H-imidazol-1-yl)ethoxy)-1H-pyrrolo[2,3-c]pyridin-2-yl)-4-methoxy-3-methylpyrazolo[1,5-a]pyridin-6-yl)methanone]",390 nM
19,"COc1cc(C(=O)N2CCC[C@@H](N)C2)cn2nc(-c3cc4ccnc(OCCn5ccnc5C)c4n3CC3CC3)c(C)c12 [Example 595, (R)-(3-Aminopiperidin-1-yl)(2-(1-(cyclopropylmethyl)-7-(2-(2-methyl-1H-imidazol-1-yl)ethoxy)-1H-pyrrolo[2,3-c]pyridin-2-yl)-4-methoxy-3-methylpyrazolo[1,5-a]pyridin-6-yl)methanone]",1280 nM
20,"COc1cc(C(=O)N2CCC[C@@H](N)C2)cn2nc(-c3cc4ccnc(OCC5COC5)c4n3CC3CC3)c(C)c12 [Example 596, (R)-(3-Aminopiperidin-1-yl)(2-(1-(cyclopropylmethyl)-7-(oxetan-3-ylmethoxy)-1H-pyrrolo[2,3-c]pyridin-2-yl)-4-methoxy-3-methylpyrazolo[1,5-a]pyridin-6-yl)methanone]",7390 nM
21,"COc1cc(C(=O)N2C[C@H](N)C[C@@H](F)C2)cn2nc(-c3cc4ccnc(OCCn5ccnc5)c4n3CC3CC3)c(C)c12 [Example 597, (2-(7-(2-(1H-Imidazol-1-yl)ethoxy)-1-(cyclopropylmethyl)-1H-pyrrolo[2,3-c]pyridin-2-yl)-4-methoxy-3-methylpyrazolo[1,5-a]pyridin-6-yl)((3R,5R)-3-amino-5-fluoropiperidin-1-yl)methanone]",10 nM
22,"COc1cc(C(=O)N2CCC[C@@H](N)C2)cn2nc(-c3cc4ccnc(OCCn5ccnc5)c4n3CC3CC3)c(C)c12 [Example 598, (R)-(2-(7-(2-(1H-Imidazol-1-yl)ethoxy)-1-(cyclopropylmethyl)-1H-pyrrolo[2,3-c]pyridin-2-yl)-4-methoxy-3-methylpyrazolo[1,5-a]pyridin-6-yl)(3-aminopiperidin-1-yl)methanone]",20 nM
23,"COc1cc(C(=O)N2CCC[C@@H](N)C2)cn2nc(-c3cc4ccnc(OCCn5cnnc5)c4n3CC3CC3)c(C)c12 [Example 599, (R)-(2-(7-(2-(4H-1,2,4-Triazol-4-yl)ethoxy)-1-(cyclopropylmethyl)-1H-pyrrolo[2,3-c]pyridin-2-yl)-4-methoxy-3-methylpyrazolo[1,5-a]pyridin-6-yl)(3-aminopiperidin-1-yl)methanone]",20 nM
